Measurements: PubChem BioAssay (NCI)
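All cell lines were grown in 96-well plates and treated with compound for 48 hours. GI50 is the concentration that inhibits growth by half. At the TGI there is no net growth.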

Key:
Assay in all cases: NCI anticancer screen, dose series, 48 h
[1] = system: RXF 393 renal
[2] = system: SNB-19 CNS
[3] = system: SW-620 colon
[4] = system: LOX IMVI melanoma
[5] = system: SK-MEL-2 melanoma
[6] = system: U251 CNS
[7] = system: M14 melanoma
[8] = system: COLO 205 colon
[9] = system: HOP-62 NSCLC
[10] = system: T-47D breast

| Compound | GI50 [1] [µM] | TGI [1] [µM] | GI50 [2] [µM] | TGI [2] [µM] | GI50 [3] [µM] | TGI [3] [µM] | GI50 [4] [µM] | TGI [4] [µM] | TGI [5] [µM] | GI50 [6] [µM] | TGI [6] [µM] | GI50 [7] [µM] | TGI [7] [µM] | TGI [8] [µM] | GI50 [9] [µM] | TGI [9] [µM] | GI50 [5] [µM] | GI50 [10] [µM] | GI50 [8] [µM] | TGI [10] [µM] |
| --- | --- | --- | --- | --- | --- | --- | --- | --- | --- | --- | --- | --- | --- | --- | --- | --- | --- | --- | --- | --- |
| N=C(N)c1ccc(-c2ccc(-c3ccc(Cl)c(Cl)c3)o2)nc1 | 1.65 | 3.58 | 1.84 | 3.7 |  |  |  |  |  |  |  |  |  |  |  |  |  |  |  |  |
| COc1ccc2c([nH]c3cc(O)c(C)cc32)c1CC=C(C)C |  |  |  | > 25 | 6.75 | 20.7 | 4.36 | 7.8 | > 25 | 5.89 | 13.7 | 1.62 | 9.29 | > 25 |  |  |  |  |  |  |
| O=C(Nc1ccc(Cl)cc1F)c1cc(Cl)ccc1O | 0.437 | 4.73 | 0.413 | > 100 | 0.7 | > 22.5 |  |  | 1.72 | 0.466 | > 100 | 0.437 | 2.78 | 5.92 | 0.999 | > 24.5 | 0.338 | 0.253 | 2.41 |  |
| C/C=C/C=C\C(=O)C1c2cccc(O)c2C(=O)c2c(O)cc(C)cc21 (stereo not drawn) |  | 2.81 |  | 2.5 |  | 2.55 |  | 3.38 | 2.2 |  | 1.63 |  |  | 2.99 |  | 4.27 |  |  |  |  |
| Cc1cc2c(=O)c3ccccc3oc2c(C#N)c1C |  | > 100 |  | > 100 |  | > 100 |  |  |  |  | > 100 |  | > 100 | > 100 |  | > 100 |  |  |  | > 100 |
| CCOC(=O)/C(=C/c1ccc(Cl)cc1)N(CC)CC |  |  |  |  |  | > 100 |  | > 100 | > 100 |  | > 100 |  | > 100 | > 100 |  | > 100 |  |  |  |  |
| COc1ccc(C(=O)c2cc(OC)c(OC)c(OC)c2)cc1/C=C/C(=O)c1ccc2c(c1)OCO2 | 1.94 | 4.21 |  |  | 0.396 | 3.77 |  |  | 7.47 |  |  |  |  | > 100 | 4.4 | 19.5 | 2.81 |  | 3.51 |  |
| Cc1ccc(C(O)/C(=N/N)c2nc3ccc([N+](=O)[O-])cc3[nH]c2=O)cc1 (stereo not drawn) |  | > 100 |  | > 100 |  | > 100 |  | > 100 | > 100 |  | > 100 |  | > 100 | > 100 |  | > 100 |  |  |  |  |
| COc1cccc(N2C(=O)[C@H]3[C@H]4CC(C(C)(C)C)CC[C@H]4c4c([nH]c5ccccc45)[C@H]3C2=O)c1 (stereo partly drawn) |  | 42 |  | 33.9 |  | 41 |  | 32.7 | 40.3 |  |  |  | 30.7 | 32.2 |  | 31.7 |  |  |  |  |
| C[C@]12CC/C(=N\OC(=O)Nc3ccccc3)C=C1CC[C@@H]1C2CC[C@@]2(C)C1CC[C@@H]2OC(=O)Nc1ccccc1 (stereo partly drawn) |  |  |  | > 100 |  | > 100 |  | > 100 | > 100 |  | > 100 |  | > 100 | > 100 |  |  |  |  |  |  |
| [O]=[W](=[O])([OH])[OH] | > 100 | > 100 | > 100 | > 100 | > 100 | > 100 |  |  | > 100 | > 100 | > 100 | > 100 | > 100 | > 100 |  |  | > 100 | > 100 | > 100 | > 100 |
| COC(=O)C1=C(C)N(NC(=O)c2cccc(Cl)c2)C(C)(O)C12CCOC2=O (stereo not drawn) |  |  |  | > 100 |  | > 100 |  | > 100 | > 100 |  | > 100 |  | > 100 |  |  | > 100 |  |  |  |  |
| NC(=O)OCC(COc1ccc(Cl)cc1)OC(=O)c1cc([N+](=O)[O-])cc([N+](=O)[O-])c1 (stereo not drawn) |  | > 100 |  | > 100 |  | 27.6 |  | 34.4 | > 100 |  | > 100 |  | > 100 | > 100 |  | > 100 |  |  |  |  |
| O=C(NCCCCCCNC(=O)NC1OCC(O)C(O)C1O)NC1OCC(O)C(O)C1O (stereo not drawn) |  | > 100 |  |  |  | > 100 |  | > 100 | > 100 |  | > 100 |  | > 100 | > 100 |  | > 100 |  |  |  |  |
| Cc1ccc(S(=O)(=O)NC(=O)C#CCOC2CCCCO2)cc1 (stereo not drawn) |  | > 100 |  | > 100 |  | > 100 |  | > 100 | > 100 |  | > 100 |  | > 100 |  |  |  |  |  |  |  |
| CCC[CH2][Ge]([CH2]CCC)([CH2]CCC)[O]C(=O)C(OC(C)=O)c1ccccc1 (stereo not drawn) | 0.102 | 1.44 | 12 | 36.9 | 4.59 | 20.6 | 0.535 | 9.14 | 19.5 | 1.19 | 20.2 | 1.05 | 6.57 | 20.9 | 2.18 | 16.1 | 3.17 |  | 6.37 |  |
| O=C1c2ccccc2CCC1(Br)Br | 1.68 | 3.32 | 10.4 | 23.2 | 0.384 | 1.53 | 1.48 | 2.9 | 11.3 | 5.67 | 15.9 | 2.08 | 5.12 | 2.06 | 6.32 | 17.8 | 3.13 |  | 0.671 |  |
| CCCCCCCCCCCCCC(=O)OC1C(CO)OC(=O)C1O (stereo not drawn) |  | > 100 |  | > 100 |  | > 100 |  | > 100 | > 100 |  | > 100 |  | > 100 | > 100 |  | > 100 |  |  |  |  |
| N#C/C(=C\c1ccc([N+](=O)[O-])s1)c1nc2cc(Br)ccc2s1 | 0.325 | 2.06 | 0.369 | > 100 | 0.244 | 1.06 | 0.171 | 0.395 | 0.672 | 0.298 | 0.986 | 0.142 | 0.323 | 0.844 | 0.314 | 1.68 | 0.236 |  | 0.269 |  |
| N#CC(C(=O)C(=O)Nc1ccc(Cl)c(Cl)c1)c1ccc(Cl)cc1 (stereo not drawn) |  | > 100 |  | > 100 |  | 30.8 |  | 31.1 | > 100 |  | > 100 |  | > 100 | > 100 |  | > 100 |  |  |  |  |
